The numbers were not newly measured in paper PMC11054638, “Transport of Non-Steroidal Anti-Inflammatory Drugs across an Oral Mucosa Epithelium In Vitro Model” (Pharmaceutics, 2024), which cites them from elsewhere.

Data set [1] has as its system COX-2. Details: method as in PMID 16678543. To be noted: 48 h post-surgery, compared to the placebo group ref 62; cited from earlier work.
Details of data set [2]: method as in PMID 15157608. To be noted: cited from earlier work.
Data set [3] relates to COX-2. Details: method as in PMID 10866999. To be noted: human cell lines ref 59; cited from earlier work.

In the case of `CS(=O)(=O)c1ccc(C2=C(c3ccccc3)C(=O)OC2)cc1` [rofecoxib], in the data set with COX-2 [1], the “COX-2 expression in the oral mucosa” value is “induced COX-2 expression”. Take `C[C@]12CCC(=O)C=C1CC[C@@H]1[C@@H]2[C@@H](O)C[C@@]2(C)[C@H]1CC[C@]2(O)C(=O)CO` [hydrocortisone]: in data set [2], the biological half-life is listed as 8–12 h. With `O=C(O)c1ccccc1Nc1cccc(C(F)(F)F)c1` [flufenamic acid], the COX-2 expression result in the data set on COX-2 [3] is recorded as “NF-κB-independent upregulation of COX-2”.
